Measurements as given in patent US10570418B2, “Methods and compositions for RNA-directed target DNA modification” (The Regents of the University of California, priority 2014, dated 2020).
“Also recorded” adds a separate entry of the source.

Assays:
[1] = system: EMX1 locus in HEK293T cells; assay: HDR frequency by HindIII digestion, EMX1 locus, HEK293T cells; type: cell-based, human; conditions: for HDR efficiency: 50-200 ρmol template 1
Description: (§1) For EMX1: forward [NT] ID NO:1404) and [NT] NO:1405). For DYRK1: forward [NT] ID NO:1406) and reverse [NT] NO:1407).

[2] = system: EMX1 locus in HEK293T cells; assay: NHEJ frequency by T7 endonuclease I assay, EMX1 locus, HEK293T cells; type: cell-based, human; conditions: for NHEJ frequency: nocodazole-treated cells (200 ng/ml, 17 h), 50-200 ρmol template 1
Description: as §1

human ES cells = assay: Cell viability of human ES cells during synchronization; type: cell-based; conditions: hES cells; aphidicolin treatment after nocodazole, at 10 h
[3] = system: DYRK1 locus in HEK293T cells; assay: NHEJ frequency by T7 endonuclease I assay, DYRK1 locus, HEK293T cells; type: cell-based, human; conditions: for NHEJ frequency: nocodazole synchronized cells
[4] = system: DYRK1 locus in HEK293T cells; assay: HDR frequency by HindIII digestion, DYRK1 locus, HEK293T cells; type: cell-based, human; conditions: for HDR frequency: nocodazole synchronized cells
[5] = system: EMX1 locus in human embryonic stem cells (hES); assay: NHEJ frequency by T7 endonuclease I assay, EMX1 locus, human ES cells; type: cell-based; conditions: nocodazole synchronization (16 h), 100 ρmol template 4
[6] = system: EMX1 locus in human embryonic stem cells (hES); assay: HDR frequency by HindIII digestion, EMX1 locus, human ES cells; type: cell-based; conditions: nocodazole synchronization (16 h), 30 or 100 ρmol Cas9 RNP, template 4
HEK293T cells = assay: FACS analysis of DNA content / cell cycle; type: cell-based, human; conditions: nocodazole-treated vs untreated cells
Description: The first objective was to test whether S phase was ideal for HDR in HEK293T cells. The approach was to chemically and reversibly synchronize the cells at G1, S and M phases (FIG. 1A). Lovastatin blocks at early G1 and partially at G2/M phase, by inhibiting HMG-CoA reductase and resulting in the depletion of mevalonate, which is an essential substrate for cholesterol synthesis. Mimosine arrests cells at the G1-S border prior to onset of DNA replication by an unknown mechanism. […] Excess thymidine causes feedback inhibition of deoxycytosine synthesis. Hydroxyurea blocks cells at S phase by decreasing the production of deoxyribonucleotide via inhibition of the enzyme ribonucleotide reductase. Nocodazole inhibits microtubule polymerization which is a signature structural feature as cells enter mitosis, causing arrest at G2/M phase. The drugs effects were confirmed by fluorescence activated cell sorter (FACS) analysis of the cell cycle (FIG. 1B).
FIG. 1A-1D depict the effect of cell cycle synchronization on NHEJ and HDR frequencies in HEK293T cells. (A) Chemical inhibitors were used to arrest cells at specific phases of cell cycle. Lovastatin (Lov) blocks cells in G1 phase by inhibiting cholesterol synthesis. […] The mean % NHEJ/HDR and standard deviation (error bars) were calculated from three experiments.

[7] = nocodazole synchronization, 30 ρmol Cas9 RNP, 50 ρmol HDR template
[8] = 30 ρmol of Cas9, 100 ρmol template 1
[9] = inhibitor-synchronized cells, 30 ρmol of Cas9, 100 ρmol template 1
[10] = 30 and 100 ρmol Cas9 RNP, 100 ρmol HDR template 1, inhibitor synchronization before nucleofection
[11] = 100 ρmol of Cas9, 100 ρmol template 1
[12] = all doses of Cas9 RNP, vs unsynchronized

“template 6: double-stranded HDR template PCR amplified from single-stranded template 5 (sense AAGCTTGGATCC; antisense GGATCCAAGCTT; DNA, phosphodiester; double-stranded PCR-amplified HDR donor)” gave an HDR frequency [1, 7] of about 7%.

“template 7: double-stranded HDR template assembled from two fragments by overlapping PCR of HEK293T genomic DNA (sense AAGCTTGGATCC; antisense GGATCCAAGCTT; DNA, phosphodiester; double-stranded HDR donor assembled by overlapping PCR)” gave an HDR frequency [1, 7] of about 7%.

“template 2: single-stranded oligonucleotide HDR template with HindIII and BamHI sites, 30-nt homology arms (DNA GGATCCAAGCTT; single-stranded DNA HDR donor oligonucleotide, chemistry not given here)” gave an HDR frequency [1, 7] of 5%.

“template 1: 183-nt single-strand DNA oligonucleotide HDR donor encoding a HindIII site, 90-nt and 55-nt asymmetrical homology arms (DNA CCACCGCTACGAAGCTTGTCATTGGAGGTGACATCGATGTCCTC; single-stranded DNA HDR donor oligonucleotide, chemistry not given here)” was tested, and the “HDR frequency compared between templates” value ([1]; 30 ρmol Cas9 RNP, 50 ρmol HDR template) was “lower HDR frequency than template 3”.

`C[C@@]1(CO)[C@H](O)CC[C@@]2(C)[C@H]1CC[C@H]1C[C@@H]3C[C@@]12CC[C@]3(O)CO` [aphidicolin] was tested, and the “NHEJ frequency compared to the unsynchronized cells” value [2, 8] was “increased the NHEJ frequency slightly”, the HDR frequency [1, 9] was 15% and the “HDR frequency with aphidicolin block” value ([1]; nocodazole synchronized, aphidicolin 2 μg/ml added to media immediately after nucleofection, 30 ρmol Cas9 RNP, 50 ρmol template) was “significantly reduced”. The Cell viability (human ES cells) was “substantial drop in cell viability”.

`NC(=O)NO` [hydroxyurea] was tested, and the “NHEJ frequency compared to the unsynchronized cells” value [2, 10] was “greatly decreased” and the “HDR frequency compared to the unsynchronized cells” value [1, 10] was “greatly decreased”.

In the case of `CC[C@H](C)C(=O)O[C@H]1C[C@@H](C)C=C2C=C[C@H](C)[C@H](CC[C@@H]3C[C@@H](O)CC(=O)O3)[C@H]21` [lovastatin], the “NHEJ frequency compared to the unsynchronized cells” value [2, 10] is reported as “greatly decreased” and the “HDR frequency compared to the unsynchronized cells” value [1, 10] is reported as “greatly decreased”.

`Cc1cn([C@H]2C[C@H](O)[C@@H](CO)O2)c(=O)[nH]c1=O` [thymidine] was tested, and the “NHEJ frequency compared to the unsynchronized cells” value [2, 8] was “slightly reduced”, the “NHEJ frequency compared to the unsynchronized cells (reduced or not)” value [2, 11] was “not” and the “HDR frequency compared to the unsynchronized cells” value [1, 8] was “slightly reduced”. The “HDR frequency compared to the unsynchronized cells (reduced or not)” value [1, 11] was “not”.

For “template 4: single-stranded HDR template, 90-nt homology arms, complementary orientation (DNA GGATCCAAGCTT; single-stranded DNA HDR donor oligonucleotide, chemistry not given here)”, the HDR frequency [1, 7] was 23%.

For `COC(=O)Nc1nc2ccc(C(=O)c3cccs3)cc2[nH]1` [nocodazole], the “NHEJ frequency compared to the unsynchronized cells” value [2, 8] was “increased the NHEJ frequency slightly”, the “Increase of NHEJ frequency by synchronization” value ([2]; nocodazole vs unsynchronized, 10 ρmol Cas9 RNP) was “two-fold” and the “Increase of NHEJ frequency by synchronization” value ([2]; nocodazole vs unsynchronized, 30 ρmol Cas9 RNP) was 1.5 fold. For the same molecule, the “Enhancement of NHEJ frequency by synchronization” value ([2]; nocodazole vs unsynchronized, 100 ρmol Cas9 RNP) was “diminished”, the NHEJ frequency ([2]; 10 ρmol Cas9 RNP) was 15-17% and the NHEJ frequency ([2]; 30 ρmol Cas9 RNP) was 35-37%. For the same molecule, the NHEJ frequency ([2]; 100 ρmol Cas9 RNP) was 46-49%, the “HDR frequency relative to the unsynchronized cells” value ([1]; 30 ρmol Cas9 RNP, 50 ρmol HDR template (templates 1-7)) was “overall higher HDR frequency” and the HDR frequency [1, 9] was 19%. For the same molecule, the HDR efficiency ([1]; nocodazole synchronization, 10 ρmol Cas9 RNP) was 9-15%, the HDR efficiency ([1]; nocodazole synchronization, 30 ρmol Cas9 RNP) was 22-28% and the HDR efficiency ([1]; nocodazole synchronization, 100 ρmol Cas9 RNP) was 24-32%. The “Highest HDR frequency (representative gel of triplicate experiment)” value ([1]; nocodazole synchronization, 100 ρmol of Cas9, 100 ρmol template 1) was 31%, the “Enhancement of NHEJ frequency by nocodazole synchronization” value [3, 12] was “more than two-fold” and the NHEJ frequency ([3]; 10 ρmol Cas9 RNP) was 20-24%. For the same molecule, the NHEJ frequency ([3]; 30 ρmol Cas9 RNP) was 45-47%, the NHEJ frequency ([3]; 100 ρmol Cas9 RNP) was 63-65% and the “Enhancement of HDR frequency by nocodazole synchronization” value [4, 12] was “over six-fold”. For the same molecule, the HDR frequency ([4]; 10 ρmol Cas9 RNP) was 5-6%, the HDR frequency ([4]; 30 ρmol Cas9 RNP) was 12-17% and the HDR frequency ([4]; 100 ρmol Cas9 RNP) was 24-25%. For the same molecule, the NHEJ frequency ([5]; 30 ρmol Cas9 RNP) was 9%, the NHEJ frequency ([5]; 100 ρmol Cas9 RNP) was 28-31% and the HDR events [6] was “no HDR event was detected”. For the same molecule, the “Enrichment of cells arrested at M phase (DNA content, FACS)” value (HEK293T cells) was “two-fold enrichment; also recorded: three-fold enrichment”.

In the case of “template 3: single-stranded oligonucleotide HDR template with HindIII and BamHI sites, 60-nt homology arms (DNA GGATCCAAGCTT; single-stranded DNA HDR donor oligonucleotide, chemistry not given here)”, the HDR frequency [1, 7] is reported as 19% and the “Increase of HDR frequency on extending homology arms from 30 nt to 60 nt” value ([1]; nocodazole synchronization, vs template 2) is reported as “four-fold”.

With `NC(Cn1ccc(=O)c(O)c1)C(=O)O` (centres unmarked) [mimosine] the “NHEJ frequency compared to the unsynchronized cells” value [2, 10] was “greatly decreased” and the “HDR frequency compared to the unsynchronized cells” value [1, 10] was “greatly decreased”.

B1: template 5: single-stranded HDR template, 90-nt homology arms, non-complementary orientation (SEQ ID NO:1397) (nucleic acid)
DNA: TGGCCAGGGAGTGGCCAGAGTCCAGCTTGGGCCCACGCAGGGGCCTGGCCAGCAGCAAGCAGCACTCTGCCCTCGTGGGTTTGTGGTTGCGGATCCAAGCTTTTGGAGGTGACATCGATGTCCTCCCCATTGGCCTGCTTCGTGGCAATGCGCCACCGGTTGATGTGATGGGAGCCCTTCTTCTTCTGCTCG
modifications: Synthetic nucleic acid sequence
Work on B1 yielded an HDR frequency [1, 7] of 20%.
